Numbers after ± are expanded uncertainties.
What was measured:
[1] = Molar enthalpy of transition or fusion; settings: Crystal; DSC

Normal melting temperature (Crystal, DTA): 110.1 ± 0.4 °C
Glass transition temperature (Glass, Adiabatic calorimetry): 41.2 ± 0.1 °C
Molar enthalpy of transition or fusion [1]: 6.67 ± 0.143 kcal/mol
Structure (SMILES): COc1ccc(C2(c3ccc(OC)c(C)c3)OC(=O)c3ccccc32)cc1C [3,3-bis(4-methoxy-3-methylphenyl)-1(3H)-isobenzofuranone]

Source: the NIST ThermoML archive (doi:10.1016/j.tca.2016.05.007)
